Experimental findings from patent US10266527B2, “T-box riboswitch-binding anti-bacterial compounds” (THE RESEARCH FOUNDATION FOR THE STATE UNIVERSITY OF NEW YORK, priority 2013, dated 2019) are described below.

Holding throughout (assay type): cell-based
The subject of data set [1] is B. subtilis. The experiment in a line: Disc diffusion assay, growth inhibition of B. subtilis. As to conditions: Table 1, ✓ = zone of inhibition observed. The text has this:
The same 20 top binders and 8 additional predicted to interact with the cleft of the tyrRS mRNA Specifier Loop were selected from subsequent docking and preliminary fluorescence data.
In general terms: In agar diffusion tests the substance spreads into inoculated agar from a disc or well.

The test system of data set [2] is B. subtilis BGSC 1A1. The data set can be described thus: Broth microdilution MIC. As to conditions: for MIC: B. subtilis BGSC 1A1, 20 h at 37° C. On the procedure:
(§1) Broth microdilution assays^77, 78 were performed with B. subtilis, and S. aureus to determine the lowest compound concentration inhibiting visible growth, i.e., minimum inhibitory concentration (MIC) of the 4 original compounds. […] The insolubility of the fourth compound may account for its lack of antibacterial activity. […] The MICs of each compound are moderate.
(§2) Strains were grown on trypticase soy agar (TSA) with 5% sheep blood at 37° C. for 24 hours. Five isolated colonies were used to inoculate 5 mL cation-adjusted Mueller-Hinton broth (CAMHB) contained in a 50 mL centrifuge tube. The resulting culture was incubated shaking at 200 rpm for 3 hours at 37° C. and then diluted in CAMHB until its turbidity matched that of a 0.5 McFarland standard (OD625 0.08-0.10). After the culture had been standardized against a 0.5 McFarland standard, it was diluted 1:10 in CAMHB and then 5 μL of this dilution was added to the appropriate wells of a 96-well, flat-bottomed tissue culture plate in which each row contained a twofold dilution series of a particular compound ranging in concentration from 0.25 μg/mL to 512 μg/mL. Each plate also included a sterility control well containing CAMHB to which standardized inoculum was not added and a growth control well containing CAMHB to which 5 μL standardized inoculum was added. […] With the exception of the sterility control well, all wells were inoculated within 15 minutes of inoculum preparation to ensure that the starting concentration of bacteria in each well was approximately 5×10^5 CFU/m L. A Tecan Sunrise microplate absorbance reader was used to measure the OD620 of each well before and after 20 h incubation at 37° C. MIC values were recorded as the lowest compound concentration at which no visible growth was observed after this incubation period.
For orientation: Dilution methods test growth across graded concentrations, often in twofold steps.

Data set [3] has as its system B. cereus ATCC 7064. The experiment in a line: Broth microdilution MIC. As to conditions: for MIC: B. cereus ATCC 7064.
Data set [4] concerns S. aureus ATCC 29213. The data set can be described thus: Broth microdilution MIC. As to conditions: for MIC: S. aureus ATCC 29213, N/O = not observed.
From the text: (§3) The identity and purity of both PKZ 6 and 18 was confirmed by mass spectroscopy. Forty commercially available compounds chosen on the basis of initial in silico selections and similarity to our two hits were screened by disc diffusion assay (DDA) to determine their relative antibacterial activity with S. aureus. […] These 14 compounds were further evaluated by minimum inhibitory concentration assays (MIC)^41,42, and minimum bactericidal assays (MBC)^41 to confirm antibacterial activity, determine the concentration at which S. aureus growth is inhibited in liquid culture (MIC) and if they are acting as bacteriostatic or bactericidal agents (MBC). […] Representative embodiments are shown below.
as §1, §2

For data set [5], the system named is S. aureus ATCC 29213. The experiment in a line: MBC determination. As to conditions: S. aureus ATCC 29213; N/O = not observed.
From the text: as §3
(§4) Following 24 h incubation of these subcultures at 37° C., MBC values were recorded as the lowest compound concentration at which no viable colonies were observed.

Data set [6] deals with S. pneumoniae ATCC 49619. The data set can be described thus: Broth microdilution MIC. As to conditions: for MIC: S. pneumoniae ATCC 49619.
For data set [7], the system named is E. faecalis ATCC 29212. The data set can be described thus: Broth microdilution MIC.
The subject of data set [8] is B. cereus ATCC 7064. The experiment in a line: MBC determination. On the procedure: as §4
Data set [9] concerns B. subtilis BGSC 1A1. The experiment in a line: MBC determination. As to conditions: IND = indeterminate. On the procedure: as §4
Data set [10] relates to E. coli ATCC 25922. The experiment in a line: MBC determination. As to conditions: E. coli ATCC 25922. On the procedure: as §4
For data set [11], the system named is E. faecalis ATCC 29212. The experiment in a line: MBC determination. As to conditions: N/O = not observed. On the procedure:
as §4

In data set [12] the test system is E. coli ATCC 25922. The experiment in a line: Broth microdilution MIC (Gram negative specificity control). As to conditions: for MIC: E. coli ATCC 25922, N/O = not observed.
For data set [13], the system named is P. aeruginosa ATCC 27853. The data set can be described thus: Broth microdilution MIC. As to conditions: N/O = not observed.
The subject of data set [14] is Human Embryonic Kidney (HEK293) cells. The experiment in a line: Toxicity on a monolayer of HEK293 cells.
For data set [15], the system named is P. aeruginosa ATCC 27853. The experiment in a line: MBC determination. On the procedure:
as §4

≈ marks a conversion by molar mass, not a printed value. Where two headings read alike, the source gives them in different places.

For `O=C(NCCN1CCNCC1)c1c(O)c2cccc3c2n(c1=O)CCC3` [Compound 6], in data set [1], the ZOI observed entry is recorded as “✓”. Also, the “antibacterial activity against B. subtilis (in words)” value in [2] is “active”; in [2] (listed as PKZ 6), “inhibited growth”. Also, the MIC in data set [2] (Bacillus subtilis, BGSC1A1, read-out: MIC) is 32 µg/mL (≈ 89.8 µM); in data set [3] (Bacillus cereus, ATCC7064, read-out: MIC) it was 128 µg/mL (≈ 359 µM); in [4] (Staphylococcus aureus, ATCC29213, read-out: MIC) it was 256 µg/mL (≈ 718 µM); in data set [6] (Streptococcus pneumoniae, ATCC49619, read-out: MIC) it was 64 µg/mL (≈ 180 µM); in data set [7] (Enterococcus faecalis, ATCC29212, N/O = not observed, read-out: MIC), 128 µg/mL (≈ 359 µM); in data set [12] (Escherichia coli, ATCC25922, read-out: MIC), 256 µg/mL (≈ 718 µM). Also, in data set [13], the MIC entry was “N/O (N/D)”. The “growth inhibition of B. cereus (in words)” value in data set [3] (at moderate concentrations) is listed as “inhibited growth”. The “antibacterial activity against S. aureus (in words)” value in data set [4] is on record as “displayed antibacterial properties”; in data set [4] (listed as PKZ 6) it was “inhibited growth”. In addition, the MBC entry is “N/O” in data set [5]; 256 µg/mL (≈ 718 µM) in [8] (Bacillus cereus, ATCC7064, N/O = not observed, read-out: MBC); “IND” in [9]; 256 µg/mL (≈ 718 µM) in data set [10] (Escherichia coli, ATCC25922, read-out: MBC); “N/O” in [11]. Also, in data set [6] (at moderate concentrations), the “growth inhibition of S. pneumoniae (in words)” value is “inhibited growth”. Besides, the “antibacterial activity against E. coli (in words)” value in data set [12] (E. coli negative control without T-box riboswitch) is “moderate antibacterial activity”. Moreover, the “16 hr post exposure % Live” value in [14] (32 ug/ml) is reported as 100%; in data set [14] (64 ug/ml), 60%; in data set [14] (128 ug/ml) it was 0%. Moreover, the “16 hr post exposure Morphology” value in data set [14] (32 ug/ml) was “Normal”; in data set [14] (64 ug/ml), “Mix of Normal and Detached”; in [14] (128 ug/ml), “Rounded and Detached”. For the same compound, the “24 hr post exposure % Confluent” value was determined as 50% in data set [14] (32 ug/ml), 15% in data set [14] (64 ug/ml) and 0% in data set [14] (128 ug/ml). Also, the entries for the “24 hr post exposure % Live” value in data set [14] (32 ug/ml), in data set [14] (64 ug/ml) and in data set [14] (128 ug/ml) were 70%, 25% and 0%, respectively. The “24 hr post exposure Morphology” value in [14] (64 ug/ml) is “Mix of Normal and Detached”; in [14] (128 ug/ml) it was “Rounded and Detached”.

For Gentamicin [reference compound], the MIC was 0.125 µg/mL in data set [2]; 1 µg/mL in data set [3]; 0.5 µg/mL in [4]; 4 (N/D) μg/mL in data set [6]; 8 µg/mL in data set [7] (N/O = not observed); 1 µg/mL in data set [12]. In addition, the MIC in data set [13] came to 1 µg/mL. In addition, the minimum bactericidal concentration (MBC) stood at 8 µg/mL in data set [5]; 2 µg/mL in data set [8] (N/O = not observed); 0.25 µg/mL in data set [9]; 1 µg/mL in data set [10]; 32 µg/mL in data set [11]; 4 µg/mL in data set [15].

As a reminder, the MBC is the smallest concentration meeting the test's criterion for killing.
